Assay results: US9795688B2, “Cell-specific targeting using nanostructured delivery systems” (SmartDyeLivery GmbH, priority 2013, dated 2017)

Assays:
Format in all cases: cell-based
OCT1 [1] = target: T1, OCT1 (Homo sapiens, UniProt O15245); test: Uptake of DY-635 into transporter-transfected HEK-293T cells; settings: 10 μmol/L, 5 minutes
T1 construct: expressed in transfected cells; host or cells: HEK-293T
T1 sequence (O15245 1-554): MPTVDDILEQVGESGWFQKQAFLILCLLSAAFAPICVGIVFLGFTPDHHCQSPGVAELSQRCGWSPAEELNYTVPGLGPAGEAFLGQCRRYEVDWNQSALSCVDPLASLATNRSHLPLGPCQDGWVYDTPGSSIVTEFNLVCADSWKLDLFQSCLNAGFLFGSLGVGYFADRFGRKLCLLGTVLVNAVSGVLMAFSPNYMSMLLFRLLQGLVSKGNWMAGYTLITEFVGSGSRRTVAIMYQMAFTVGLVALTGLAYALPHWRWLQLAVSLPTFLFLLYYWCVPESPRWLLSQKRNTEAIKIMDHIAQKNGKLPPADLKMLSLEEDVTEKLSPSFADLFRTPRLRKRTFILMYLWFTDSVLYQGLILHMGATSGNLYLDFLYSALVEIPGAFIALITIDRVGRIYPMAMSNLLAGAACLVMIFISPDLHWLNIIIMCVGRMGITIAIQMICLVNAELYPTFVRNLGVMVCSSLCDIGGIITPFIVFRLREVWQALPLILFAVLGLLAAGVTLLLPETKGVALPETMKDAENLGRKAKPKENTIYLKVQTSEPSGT
Experimental: (§1) HEK-293T cells were transfected with human tissue-specific hepatocytic transporters. Then the uptake of the polymethine dye DY-635 as a targeting unit into these tissue-specific transporters was investigated for FIG. 10 A. To do so, the cells were sown onto 96 well plates, incubated for 24 hours under standard conditions, then incubated 5 minutes with DY-635 (final concentration in the well: 10 μmol/L) after changing the medium. Next the cells were lysed and the lysates were measured by fluorimetry. […] The uptake by OCT1 can be evaluated as negligible. In FIG. 10 B the question of whether DY-635 binds as an inhibitor to the basolateral hepatocytic transporters was investigated. For this purpose, the HEK-293T cells transfected with the tissue-specific transporters were sown and incubated as described above. After 24 hours the cells were incubated for 5 minutes with either a radioactively labeled transporter-specific substrate or with the radioactive-specific substrate with a specific inhibitor or with DY-635 (10 μmol/L final concentration) (the substrates and their concentrations are shown in Table 3 below). The cells were then washed and lysed in the well. To quantify the uptake, the radioactive radiation of the substrates was used. […] This illustrates the strong interaction of DY-635 with the tissue-specific hepatocytic transporters. […]

NTCP = target: T2, NTCP (Homo sapiens, UniProt Q14973); test: as above; settings: 10 μmol/L, 5 minutes
T2 construct: expressed in transfected cells; host or cells: HEK-293T
T2 sequence (Q14973 1-349): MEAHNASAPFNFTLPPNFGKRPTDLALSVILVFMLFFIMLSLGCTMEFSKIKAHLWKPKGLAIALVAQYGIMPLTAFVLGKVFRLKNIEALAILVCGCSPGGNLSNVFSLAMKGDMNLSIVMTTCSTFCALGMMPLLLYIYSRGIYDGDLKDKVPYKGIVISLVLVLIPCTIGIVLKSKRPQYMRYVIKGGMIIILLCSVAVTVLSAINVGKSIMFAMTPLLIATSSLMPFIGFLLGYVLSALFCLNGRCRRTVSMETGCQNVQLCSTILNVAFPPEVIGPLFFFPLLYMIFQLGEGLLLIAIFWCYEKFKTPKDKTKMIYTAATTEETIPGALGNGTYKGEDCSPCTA
Experimental: as §1

OATP1B1 = target: T3, OATP1B1 (Homo sapiens, UniProt Q9Y6L6); test: Inhibition of radioactively labeled substrate uptake in transfected HEK-293T cells; settings: 10 μmol/L, 5 minutes; [3H]Estradiol 30 nM
T3 construct: expressed in transfected cells; host or cells: HEK-293T
T3 sequence (Q9Y6L6 1-691): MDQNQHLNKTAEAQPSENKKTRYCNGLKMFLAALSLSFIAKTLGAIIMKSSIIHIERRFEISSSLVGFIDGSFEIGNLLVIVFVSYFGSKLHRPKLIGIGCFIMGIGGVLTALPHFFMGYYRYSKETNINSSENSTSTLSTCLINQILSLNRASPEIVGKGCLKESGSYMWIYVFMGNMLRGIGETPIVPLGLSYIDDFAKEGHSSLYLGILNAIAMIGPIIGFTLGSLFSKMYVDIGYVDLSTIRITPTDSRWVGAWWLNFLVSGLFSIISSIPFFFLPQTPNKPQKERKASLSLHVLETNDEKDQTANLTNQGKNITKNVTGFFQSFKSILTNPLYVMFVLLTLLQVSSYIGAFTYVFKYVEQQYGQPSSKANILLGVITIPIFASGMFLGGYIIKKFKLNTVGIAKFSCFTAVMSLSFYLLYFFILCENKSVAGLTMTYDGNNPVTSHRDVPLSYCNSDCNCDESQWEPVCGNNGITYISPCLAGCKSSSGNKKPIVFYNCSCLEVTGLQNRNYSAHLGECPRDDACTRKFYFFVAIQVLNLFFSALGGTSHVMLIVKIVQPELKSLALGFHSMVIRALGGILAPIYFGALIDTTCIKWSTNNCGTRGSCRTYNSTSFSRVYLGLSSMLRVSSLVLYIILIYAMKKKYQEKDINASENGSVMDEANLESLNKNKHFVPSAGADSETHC
Experimental: (§2) HEK-293T cells were transfected with human tissue-specific hepatocytic transporters. Then the uptake of the polymethine dye DY-635 as a targeting unit into these tissue-specific transporters was investigated for FIG. 10 A. To do so, the cells were sown onto 96 well plates, incubated for 24 hours under standard conditions, then incubated 5 minutes with DY-635 (final concentration in the well: 10 μmol/L) after changing the medium. Next the cells were lysed and the lysates were measured by fluorimetry. […] The uptake by OCT1 can be evaluated as negligible. In FIG. 10 B the question of whether DY-635 binds as an inhibitor to the basolateral hepatocytic transporters was investigated. For this purpose, the HEK-293T cells transfected with the tissue-specific transporters were sown and incubated as described above. After 24 hours the cells were incubated for 5 minutes with either a radioactively labeled transporter-specific substrate or with the radioactive-specific substrate with a specific inhibitor or with DY-635 (10 μmol/L final concentration) (the substrates and their concentrations are shown in Table 3 below). The cells were then washed and lysed in the well. To quantify the uptake, the radioactive radiation of the substrates was used. […] This illustrates the strong interaction of DY-635 with the tissue-specific hepatocytic transporters. It can be concluded that by exposure of DY-635 to the surface of a nanostructured transporter system, immobilization on the cell surface of the hepatocyte occurs, resulting in subsequent endocytosis of the nanoparticle.

OATP1B3 = target: T4, OATP1B3 (Homo sapiens, UniProt Q9NPD5); test: as above; settings: 10 μmol/L, 5 minutes; [3H]Sulfobromophthalein
T4 construct: expressed in transfected cells; host or cells: HEK-293T
T4 sequence (Q9NPD5 1-702): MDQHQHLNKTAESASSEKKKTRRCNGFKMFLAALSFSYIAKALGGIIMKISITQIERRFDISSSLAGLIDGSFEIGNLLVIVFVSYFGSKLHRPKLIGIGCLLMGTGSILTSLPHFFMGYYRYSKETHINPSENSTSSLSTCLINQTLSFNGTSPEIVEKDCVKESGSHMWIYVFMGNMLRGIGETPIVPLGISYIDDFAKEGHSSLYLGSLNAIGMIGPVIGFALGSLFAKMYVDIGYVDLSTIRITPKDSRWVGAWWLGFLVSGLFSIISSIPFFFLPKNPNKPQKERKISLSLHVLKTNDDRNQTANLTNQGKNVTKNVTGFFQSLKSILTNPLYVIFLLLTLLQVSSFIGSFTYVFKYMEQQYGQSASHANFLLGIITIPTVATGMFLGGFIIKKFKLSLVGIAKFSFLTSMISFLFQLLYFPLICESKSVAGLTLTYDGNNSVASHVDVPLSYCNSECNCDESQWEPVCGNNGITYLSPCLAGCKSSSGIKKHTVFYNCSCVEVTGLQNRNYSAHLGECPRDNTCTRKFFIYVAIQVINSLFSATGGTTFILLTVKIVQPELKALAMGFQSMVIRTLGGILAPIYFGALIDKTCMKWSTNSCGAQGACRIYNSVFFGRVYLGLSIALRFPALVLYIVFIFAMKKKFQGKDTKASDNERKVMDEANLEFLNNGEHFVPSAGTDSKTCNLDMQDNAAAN
Experimental: as §2

OCT1 [2] = target: T1, OCT1; test: as above; settings: 10 μmol/L, 5 minutes; [3H]1-Methyl-4-phenylpyridinium
Experimental: as §2

OAT2 = target: T5, OAT2 (Homo sapiens, UniProt Q9Y694); test: as above; settings: 10 μmol/L, 5 minutes; [3H]cGMP 10 nM
T5 construct: expressed in transfected cells; host or cells: HEK-293T
T5 sequence (Q9Y694 1-548): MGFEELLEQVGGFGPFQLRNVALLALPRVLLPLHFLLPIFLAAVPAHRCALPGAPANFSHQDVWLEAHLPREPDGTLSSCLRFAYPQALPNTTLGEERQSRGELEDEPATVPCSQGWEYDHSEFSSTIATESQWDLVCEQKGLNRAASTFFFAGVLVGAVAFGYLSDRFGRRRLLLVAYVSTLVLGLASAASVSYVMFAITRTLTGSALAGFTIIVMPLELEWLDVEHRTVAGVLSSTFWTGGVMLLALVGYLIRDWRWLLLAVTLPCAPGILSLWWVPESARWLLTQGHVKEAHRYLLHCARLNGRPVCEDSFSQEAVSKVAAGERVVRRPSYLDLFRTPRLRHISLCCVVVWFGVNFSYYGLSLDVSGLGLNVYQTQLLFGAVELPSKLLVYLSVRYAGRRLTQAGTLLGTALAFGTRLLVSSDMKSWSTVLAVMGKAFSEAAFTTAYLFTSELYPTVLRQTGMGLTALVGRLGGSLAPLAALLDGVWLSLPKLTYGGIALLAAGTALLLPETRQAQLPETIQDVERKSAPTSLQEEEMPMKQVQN
Experimental: as §2

SMILES: CC(C)(C)C1=CC(=CC=CC2=[N+](CCCCCC(=O)O)c3ccc(S(=O)(=O)[O-])cc3C2(C)C)c2cc3c4c(c2O1)CCCN4CCC3 [DY-635]
- uptake of DY-635 by OCT1 (OCT1 [1]): negligible
- uptake of DY-635 by NTCP (NTCP): substrate for NTCP
- inhibition of OATP1B1 (OATP1B1): strong indicator
- inhibition of OATP1B3 (OATP1B3): strong indicator
- inhibition of OCT1 (OCT1 [2]): inhibited
- inhibition of OAT2 (OAT2): inhibited
